Residues, ends and D or L forms follow the SMILES beside them.
Legend:
[1] = target: T1, Peregrin (Homo sapiens) (UniProt P55201); details: Compound concentration 20.0 uM
T1 sequence (whole entry): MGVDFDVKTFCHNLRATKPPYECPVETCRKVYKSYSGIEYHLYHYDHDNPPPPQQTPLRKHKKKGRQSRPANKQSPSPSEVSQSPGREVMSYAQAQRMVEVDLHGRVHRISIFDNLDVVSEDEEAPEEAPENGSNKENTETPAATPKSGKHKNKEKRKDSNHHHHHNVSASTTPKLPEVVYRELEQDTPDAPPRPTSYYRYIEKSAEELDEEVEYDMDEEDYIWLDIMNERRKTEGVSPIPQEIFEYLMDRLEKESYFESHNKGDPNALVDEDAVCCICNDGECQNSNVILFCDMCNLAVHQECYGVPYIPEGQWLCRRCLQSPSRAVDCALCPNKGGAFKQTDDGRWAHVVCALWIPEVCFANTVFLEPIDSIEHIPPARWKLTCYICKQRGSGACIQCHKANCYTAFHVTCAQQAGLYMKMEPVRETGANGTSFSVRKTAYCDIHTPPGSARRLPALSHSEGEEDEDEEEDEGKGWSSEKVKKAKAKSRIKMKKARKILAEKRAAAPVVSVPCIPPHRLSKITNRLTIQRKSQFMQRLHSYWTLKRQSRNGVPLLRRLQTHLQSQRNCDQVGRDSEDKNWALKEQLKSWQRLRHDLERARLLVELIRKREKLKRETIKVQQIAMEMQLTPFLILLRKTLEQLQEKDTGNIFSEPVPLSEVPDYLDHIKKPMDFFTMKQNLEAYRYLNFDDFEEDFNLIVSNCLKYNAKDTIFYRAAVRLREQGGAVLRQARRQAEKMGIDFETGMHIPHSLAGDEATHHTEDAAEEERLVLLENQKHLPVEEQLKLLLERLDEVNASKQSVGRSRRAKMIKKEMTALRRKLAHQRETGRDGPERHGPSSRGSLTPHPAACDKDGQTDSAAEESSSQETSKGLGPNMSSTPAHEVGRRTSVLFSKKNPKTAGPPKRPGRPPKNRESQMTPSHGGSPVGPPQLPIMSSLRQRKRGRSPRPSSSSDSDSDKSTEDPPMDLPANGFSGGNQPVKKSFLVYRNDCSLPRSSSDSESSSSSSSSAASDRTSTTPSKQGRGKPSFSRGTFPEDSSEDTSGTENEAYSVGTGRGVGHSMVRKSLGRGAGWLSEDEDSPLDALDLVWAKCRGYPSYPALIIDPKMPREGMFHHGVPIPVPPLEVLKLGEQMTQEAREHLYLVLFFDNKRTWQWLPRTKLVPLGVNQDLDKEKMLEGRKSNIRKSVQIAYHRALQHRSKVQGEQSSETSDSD

[2] = target: Fibroblast growth factor receptor 2 (Homo sapiens) (UniProt P21802); details: Compound concentration 20.0 uM
Sequence of Fibroblast growth factor receptor 2 (Homo sapiens) (P21802 22-821 limits assumed): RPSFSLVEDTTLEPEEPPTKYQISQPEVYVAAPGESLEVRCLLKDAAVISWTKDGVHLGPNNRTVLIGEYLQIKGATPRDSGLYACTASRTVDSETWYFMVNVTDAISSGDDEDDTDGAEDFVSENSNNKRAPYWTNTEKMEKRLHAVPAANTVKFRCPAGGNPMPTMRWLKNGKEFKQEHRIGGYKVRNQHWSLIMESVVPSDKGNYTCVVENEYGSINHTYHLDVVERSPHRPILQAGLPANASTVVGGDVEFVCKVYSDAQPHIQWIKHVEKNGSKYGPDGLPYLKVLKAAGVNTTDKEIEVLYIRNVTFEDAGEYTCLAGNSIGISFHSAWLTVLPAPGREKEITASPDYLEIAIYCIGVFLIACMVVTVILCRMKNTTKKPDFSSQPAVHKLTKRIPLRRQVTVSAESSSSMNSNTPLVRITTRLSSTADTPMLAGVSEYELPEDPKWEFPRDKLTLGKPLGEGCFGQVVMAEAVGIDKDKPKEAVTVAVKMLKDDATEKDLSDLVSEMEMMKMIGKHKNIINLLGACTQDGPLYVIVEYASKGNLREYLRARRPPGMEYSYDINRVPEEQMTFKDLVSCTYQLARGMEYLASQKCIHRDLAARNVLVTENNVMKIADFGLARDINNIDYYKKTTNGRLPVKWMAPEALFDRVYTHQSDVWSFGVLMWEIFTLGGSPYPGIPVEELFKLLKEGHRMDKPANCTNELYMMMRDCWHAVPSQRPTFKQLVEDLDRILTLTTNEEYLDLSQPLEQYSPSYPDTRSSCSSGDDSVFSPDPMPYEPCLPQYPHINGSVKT
Description: Thermal Shift Assay. Domain: start/stop: T457-E768

Row | ΔTm [1] [°C] | ΔTm [2] [°C] | Compound
1 | 2.29 | 0.51 | CC(=O)NCC(=O)N1CCC[C@@H]1B(O)O
2 | -1.33 | 0.35 | O=C(NO)c1cnc(NC2(c3ccccc3)CC2)nc1
3 | 2.22 | 0.45 | C[C@H]1CO[C@@H]2Cn3cc(C(=O)NCc4ccc(F)cc4F)c(=O)c(O)c3C(=O)N12
4 | 0.94 | 0.32 | Cc1c(NC(=O)c2cc(C(N)=O)nc3cc(F)ccc23)c(C(F)(F)F)nn1Cc1ccc(C#N)cc1
5 | -1.09 | 0.76 | CCCN1CCN(c2ccc(C(=O)NC3(C(=O)NCC#N)CCCCC3)cc2)CC1
6 | 1.45 | -0.25 | CN(Cc1cc(Br)cc(Br)c1N)C1CCCCC1
7 | -0.41 | 0.23 | CCCN(CCC)c1ccc(C=O)cc1Br
8 | -1.48 | 0.49 | CN(C)CCCNC(=O)c1ccc(-c2cc(O)c3ncccc3c2)cc1
9 | 0.55 | -0.32 | CCCSc1nc(N[C@@H]2C[C@H]2c2ccc(F)c(F)c2)c2nnn([C@@H]3C[C@H](OCCO)[C@@H](O)[C@H]3O)c2n1
10 | 0.85 | -0.56 | N[C@@H](CCNCc1ccc(Cl)cc1)C(=O)N1CCCCC1
11 | 0.43 | -0.3 | OC[C@H]1O[C@@H](c2ccc(Cl)c(Cc3ccc(OCCOC4CC4)cc3)c2)[C@H](O)[C@@H](O)[C@@H]1O
12 | -0.98 | 0.65 | COc1cc2c(NC3CCN(CC4CCCCC4)CC3)nc(N3CCCN(C(C)C)CC3)nc2cc1OCCCN1CCCCC1
13 | 0.65 | 0.47 | CCn1ncc2c(NC3CCOCC3)c(-c3nnc(Cc4sc(C)nc4C)o3)cnc21
14 | -2.53 | -0.43 | O=C(c1ccc2c(ccn2-c2ccc(F)cc2)c1)N1CC(N2CCN(C(=O)c3nccs3)CC2)C1
15 | -1.43 | -0.3 | CC[C@H](C)[C@H](NC(=O)[C@H](CCC(=O)O)NC(=O)[C@@H](NC(C)=O)C(C)C)C(=O)N[C@H](C=O)CC(=O)O (Ac-VEID-aldehyde)
16 | 0.9 | 0.04 | FC(F)(F)Cn1cc(-c2ccncc2)c(-c2ccc(OCc3ccc4ccccc4n3)cc2)n1
17 | -0.98 | -0.25 | CCC1CCCCN1C(=O)n1ncc(C(O)(c2ccccc2)c2ccccc2)n1 (configuration not stated)
18 | -1.14 | 0.8 | COc1ccc2nc3[nH]nc(C)c3c(NCCOCCO)c2c1
19 | 0.01 | 0.24 | C[C@@H](COCCC(=O)N1CCN(c2ncc(C(F)(F)F)cn2)CC1)Nc1cn[nH]c(=O)c1C(F)(F)F
20 | -3.15 | 0.46 | O=C(Nc1c[nH]nc1C(=O)NC1CCNCC1)c1cc(F)cc(F)c1
21 | 1.24 | -0.52 | CCCOc1ccc(NC(=O)CN2CCN(C)CC2)cc1-c1nc(CC)c(CC)c(=O)[nH]1
22 | 2.2 | 0.12 | COc1cc(C(=O)NCC2(N(C)C)CCCC2)cc(OC)c1OCc1ccccc1
23 | -2.69 | 0.6 | CC(C)N(CCCNC(=O)Nc1ccc(C(C)(C)C)cc1)C[C@H]1O[C@@H](n2ccc3c(N)ncnc32)[C@H](O)[C@@H]1O
24 | -1.77 | -0.6 | O=C(NCc1ncccc1F)c1coc(CCNCCc2nc3ccccc3[nH]2)n1
25 | 1.12 | -0.55 | OC[C@H]1O[C@@H](c2ccc(F)c(Cc3cc4ccccc4s3)c2)[C@H](O)[C@@H](O)[C@@H]1O
26 | -0.95 | -1.01 | COc1cc(Cl)ccc1C1=CN(c2ccc(-c3ccccc3OC)cc2)C2=NCCCN12
27 | -1.67 | 0.49 | CC(C)[C@@H]1C(=O)N(S(C)(=O)=O)[C@@H]2CCN(C(=O)/C=C/CN3CCCCC3)[C@H]21
28 | -1.46 | -10.7 | Cc1cc(C)nc(SCC(=O)Nc2ncc(Cc3cccc(OCc4cn(Cc5ccccc5)nn4)c3)s2)n1
29 | 2.92 | -1.05 | CCOC(=O)Oc1c(OC)cc(C(=O)O[C@H]2C[C@H]3CN4CCc5c([nH]c6cc(OC)ccc56)[C@@H]4C[C@H]3[C@@H](C(=O)OC)[C@@H]2OC)cc1OC
30 | -11 | -1.86 | CCc1oc2ccccc2c1C(=O)c1cc(Br)c(O)c(Br)c1

Row | Compound | ΔTm [1] [°C] | ΔTm [2] [°C]
31 | COc1cc(O)c2c(c1)/C=C\C[C@H](O)[C@H](O)C(=O)/C=C\C[C@H](C)OC2=O | -1.29 | 2.24

From ChEMBL document CHEMBL5724796, “Tm Shift (DSF) assay results for EUbOPEN Chemogenomics Library” (2024)
